The record followed here is the NIST ThermoML archive (doi:10.1016/j.jct.2015.09.010).

Numbers after ± are expanded uncertainties.

The conditions of the data set: 298.15 K; 101.33 kPa; Liquid; Pycnometric method.
Usually mass density stands for the mass of a sample divided by its volume. For `CC#N` [acetonitrile], the mass density was found to be 777.1 ± 4.8 kg/m3.

As for `CCCCO` [butan-1-ol], the mass density was 806.1 ± 4.8 kg/m3.

Turning to `CCO` [ethanol], the mass density worked out at 785.3 ± 4.8 kg/m3.

On to `CO` [methanol], for which the mass density is reported as 786.6 ± 4.8 kg/m3.

For the compound `CCCO` [propan-1-ol], the mass density came out at 799.7 ± 4.8 kg/m3.

For the compound `CC(C)O` [propan-2-ol], the mass density is given as 781.1 ± 4.8 kg/m3.
